This passage reports melting point results from patent US6583154B1, “Compounds and methods which modulate feeding behavior and related diseases” (Amgen Inc., priority 1998, dated 2003).

Structures are written as SMILES. Where a name gives a salt, the structure may show the parent alone.

`Cc1nc(N2CCCCC2)c2[nH]c(-c3cc4ccccc4o3)cc2n1.Cl` (hydrate or solvate) [Example 85, 2-(2-Methyl-4-piperidylpyrrolo[4,5-d]pyrimidin-6-yl)benzo[b]furan Hydrochloride Monohydrate] displayed a melting point of over 280 °C.
Compound `Cc1nc(N2CCCC2)c2[nH]c(-c3ccccc3)cc2n1` (as salt: hydrochloride) (hydrate or solvate) [Example 193, 2-Methyl-6-phenyl-4-pyrrolidinylpyrrolo[3,2-d]pyrimidine Hydrochloride Monohydrate] gave a melting point of over 296 °C.
Take `Cc1nc(N2[C@H](C)CCC[C@@H]2C)c2[nH]c(-c3ccc(F)cc3)cc2n1` (as salt: hydrochloride) (hydrate or solvate): the melting point is over 275 °C.
`Cc1nc(NCc2ccccc2)c2[nH]c(-c3ccccc3)cc2n1` [Example 29, (2-Methyl-6-phenylpyrrolo[2,3-e]pyrimidin-4-yl)benyzlamine] came in with a melting point of 275 to 276.5 °C.
`COc1ccc(Cc2cc3nc(C)nc(N4CCCCC4)c3[nH]2)cc1.Cl` came in with a melting point of 263 to 267 °C.
Compound `Cc1nc(N2CCCCC2C)c2[nH]c(-c3ccccc3)cc2n1` (centres unmarked) (as salt: hydrochloride) (hydrate or solvate) [Example 63, 2-Methyl-6-phenyl-4-(2-methylpiperidinyl)pyrrolo(3,2-d)pyrimidine Hydrochloride Monohydrate] returned a melting point of 268 to 269 °C.
Turning to `COc1cccc(-c2cc3nc(C)nc(N4CCCCC4)c3[nH]2)c1.Cl` (hydrate or solvate), the melting point fell in the range of 241 to 243 °C.
`Cc1nc(N2CCCCC2)c2[nH]c(-c3ccccc3)c(Br)c2n1` (as salt: hydrochloride) [Example 211, 7-Bromo-2-methyl-6-phenyl-4-piperidylpyrrolo[3,2-d]pyrimidine Hydrochloride] registered a melting point of 239 to 240 °C.
On to `Cc1nc(N2CCCCC2)c2[nH]c(-c3cnccn3)cc2n1.Cl` (hydrate or solvate), for which the melting point was 280 to 283.5 °C.
With `c1ccc(-c2cc3nc(N4CCCC4)nc(N4CCCCC4)c3[nH]2)cc1` (as salt: hydrochloride) (hydrate or solvate), the melting point was over 272 °C.
Compound `CNc1nc(N2CCCCC2)c2[nH]c(-c3ccccc3)cc2n1` (as salt: hydrochloride) (hydrate or solvate) had a melting point of 195 to 200 °C.
Take `Cc1nc(N2CCCCC2)c2[nH]c(-c3cc(C(F)(F)F)cc(C(F)(F)F)c3)cc2n1.Cl` [Example 122]: the melting point is over 280 °C.
The figure for `Cc1nc(N2CCCCC2)c2[nH]c(-c3ccc4c(c3)CCCC4)cc2n1.Cl` (hydrate or solvate) is 175 to 177 °C; for `Cc1nc(N2[C@H](C)CCC[C@@H]2C)c2[nH]c(-c3ccccc3)cc2n1` (as salt: hydrochloride) [Example 185, 4-((6S, 2R)-2,6-Dimethyl)-2-methyl-6-phenylpyrrolo[3,2-d]pyrimidine Hydrochloride] it is over 270 °C.
The figure for `Cc1nc(N2CCCCC2)c2[nH]c(C)c(Cc3ccccc3)c2n1.Cl` (hydrate or solvate) is > 240 °C (dec.); for `CCc1nc(N2CCCCC2)c2[nH]c(-c3ccccc3)cc2n1.Cl` (hydrate or solvate) [Example 68c, 2-Ethyl-6-phenyl-4-piperidylpyrrolo[3,2-d]pyrimidine Hydrochloride Monohydrate] it is 286 to 288 °C (dec.).
`Cl.c1coc(-c2cc3ncnc(N4CCCCC4)c3[nH]2)c1` showed a melting point of over 280 °C.
The value for `Cl.c1ccc(-c2[nH]c3c(N4CCCCC4)ncnc3c2-c2ccccc2)cc1` (hydrate or solvate) was 266 to 268.5 °C; that for `Cc1nc(N2CCCCC2)c2[nH]c(-c3c(F)cccc3F)cc2n1.Cl` (hydrate or solvate) was over 280 °C.
In the case of `Cc1nc(N2CCCCC2)c2[nH]c(-c3cccc(Cl)c3)cc2n1.Cl` (hydrate or solvate) [Example 70e, 6-(3-Chlorophenyl)-2-methyl-4-piperidylpyrrolo[3,2-d]pyrimidine Hydrochloride Monohydrate], the melting point was 244.5 to 246 °C (dec.).
`Cc1ccc2sc(-c3cc4nc(C)nc(N5CCCCC5)c4[nH]3)c(C)c2c1.Cl` (hydrate or solvate) came in with a melting point of over 280 °C.
`Cc1nc(N2CCCCC2)c2[nH]c(-c3ccc4c(c3)Cc3ccccc3-4)cc2n1.Cl` (hydrate or solvate) [Example 127, 6-Fluoren-2-yl-2-methyl-4-piperidylpyrrolo[3,2-d]pyrimidine Hydrochloride Hydrate] came in with a melting point of over 280 °C.
`Nc1nc(N2CCCCC2)c2[nH]c(-c3ccccc3)cc2n1` (as salt: hydrochloride) (hydrate or solvate) [Example 66e, 6-Phenyl-4-piperidylpyrrolo[3,2-d]pyrimidine-2-yl Amine Hydrochloride Hydrate]: the melting point is > 300 °C (dec.).
Compound `Cl.c1cnc(-c2cc3ncnc(N4CCCCC4)c3[nH]2)cn1` (hydrate or solvate) registered a melting point of over 280 °C.
In turn, `Cc1nc(N2CC=CCC2)c2[nH]c(-c3ccccc3)cc2n1` (as salt: hydrochloride) [Example 65, 2-Methyl-6-phenyl-4-(1,2,3,6-tetrahydropyridinyl)pyrrolo[3,2-d]pyrimidine Hydrochloride] came in with a melting point of 278 to 279 °C.
`Cl.c1ccc(-c2cc3ncnc(N4CCCCC4)c3[nH]2)nc1` (hydrate or solvate) came in with a melting point of 279 to 280 °C.
The compound `Cc1nc(N2CCCCC2)c2[nH]c(COc3ccccc3)cc2n1.Cl` came in with a melting point of 238 to 239 °C.
The figure for `Cc1nc(N2CCCCC2)c2[nH]c(-c3cccc(O)c3)cc2n1.Cl` (hydrate or solvate) is over 280 °C; for `CC(C)Cc1nc(N2CCCCC2)c2[nH]c(-c3ccccc3)cc2n1` (as salt: hydrochloride) (hydrate or solvate) it is 226 to 229.5 °C; for `Cc1nc(N2CCCCC2)c2[nH]c(-c3cc(C)sc3C)cc2n1.Cl` (hydrate or solvate) it is 240 to 241.5 °C.
On to `Cc1nc(N2CCOCC2)c2[nH]c(-c3ccc(F)c(F)c3)cc2n1` (as salt: hydrochloride) [Example 141, 4-[6-(3,4-Difluorophenyl)-2-methylpyrrolo[2,3-e]pyrimidin-4-yl]morpholine Hydrochloride], for which the melting point is over 280 °C.
As for `Cc1nc(N2CCCCC2)c2[nH]c(-c3ccc(C(F)(F)F)cc3)c(C)c2n1.Cl`, the melting point is over 280 °C.
In turn, `Cc1nc(N2CCCCC2)c2[nH]c(C)c(Oc3ccccc3)c2n1.Cl` (hydrate or solvate) displayed a melting point of over 280 °C.
With `Cc1nc(N2CCCCC2)c2[nH]c(-c3sc4ccccc4c3C)cc2n1.Cl` (hydrate or solvate), the melting point was over 280 °C.
In turn, `Cc1nc(N2CCCCC2CCO)c2[nH]c(-c3ccccc3)cc2n1` (centres unmarked) (as salt: hydrochloride) [Example 62, 2-Methyl-6-phenyl-4-(2-piperidineethanolyl)pyrrolo(3,2-d)pyrimidine Hydrochloride] came in with a melting point of 273 to 273.5 °C.
